Results reported in PMC7394103 (Frontiers in Pharmacology, 2020).

Experiments:
LN cells from CIA mice = test: CII-induced cytokine production by LN cells from treated CIA mice; assay type: in vivo; conditions: 30 mg/kg; for IL-10 production by LN cells / proinflammatory cytokines (IL-1β, IL-5, IL-6, IL-17A, TNF, GM-CSF, RANKL) by LN cells: cells cultured 72 h with CII, vs saline
Method: At the end of the study (day 44), we isolated the axillary, inguinal, and popliteal LN and purified mononuclear cells from the LN. These cells were cultured in 6-well plates (5 × 10^6 cells/ml) without or with 50 μg/ml CII for 3 days in RPMI-1640 medium supplemented with 10% of fetal bovine serum (FBS) (Invitrogen, Carlsbad, CA, USA), 2 mM l-glutamine, 100 U/ml penicillin, 100 μg/ml streptomycin, 1 mM sodium pyruvate, and 0.1 mM nonessential amino acids ([Kochetkova et al., 2008]). The levels of cytokines, including tumor necrosis factor (TNF), granulocyte-macrophage colony-stimulating factor (GM-CSF), IL-1β, IL-5, IL-6, IL-10, IL-17A, and receptor activator of nuclear factor-κB ligand (RANKL) were measured in LN culture supernatants using ELISA kits (BD Biosciences, San Jose, CA, USA) for mouse cytokines.

JNK2 = system: JNK2; set-up: method as in Schepetkin et al., 2019; conditions: kinase profiling; ref Schepetkin et al., 2019; cited from earlier work
[1] = Cytotoxicity assay (CellTiter-Glo), THP-1; assay type: cell-based; conditions: human, THP-1 cells; concentrations up to 50 µM; read-out: Cytotoxic effect THP-1 IC50
Method: Cytotoxicity was analyzed using a CellTiter-Glo Luminescent Cell Viability Assay Kit (Promega), according to the manufacturer’s protocol. Briefly, cells were cultured at a density of 10^4 to 10^5 cells/well with different concentrations of test compounds (final concentration of DMSO was 1%) for the indicated periods of time (2, 12, or 24 h) at 37°C and 5% CO2. Following treatment, substrate was added to the cells, and the samples were analyzed with a Fluoroscan Ascent FL microplate reader.

IL-6 secretion by HUVEC = test: IL-1β-induced IL-6 secretion by HUVEC (ELISA); assay type: cell-based; conditions: Homo sapiens, 30 min compound, then 5 ng/ml IL-1β, 24 h
Method: (§1) FLS, HUVEC, SW982, and THP-1 cells were plated in 96 well plates (10^4 to 10^5 cells/well) for 48 h before treatment. At 2 days post-confluency, the cells were serum-starved and washed twice (with the exception of THP-1 cell, which were not washed) with FBS-free medium prior to the addition of test compounds. The cells were incubated in the presence or absence of test compounds or DMSO (vehicle control) for 30 min at 37°C in a 5% CO2 atmosphere, IL-1β (5 ng/ml) was added, and the cells were incubated for an additional 24 h. Culture supernatants were collected and stored at –80°C. The levels of MMP-1 and MMP-3 were determined in culture supernatants using commercially available ELISA kits according to the manufacturer’s instructions (R&D System, Minneapolis, MN, USA). IL-6 levels were also determined in the supernatants using a human IL-6 ELISA kit (BD Biosciences, San Jose, CA, USA).

AChE = target: T1, AChE (Homo sapiens, UniProt P22303); test: AChE inhibition assay (Ellman-based kit); assay type: biochemical; conditions: concentration causing 30% inhibition
T1 construct: purchased Sigma-Aldrich
Method: The inhibitory effect of test compounds on AChE activity was performed using an AChE inhibitor screening kit from Sigma-Aldrich. The kit is based on an improved Ellman method, whereby thiocholine produced from AChE activity forms a yellow color with 5,5’-dithiobis(2-nitrobenzoic acid), and the intensity the color (412 nm) is proportional to enzyme activity. […] IC30 was obtained by graphing the % inhibition of enzyme activity versus the logarithm of concentration of test compound using 5–7 tested concentrations.

[2] = system: c-Jun phosphorylation in FLS; test: c-Jun phosphorylation in IL-1β-stimulated FLS (Western blot); assay type: cell-based, human; conditions: 1 h pretreatment, 2 ng/ml IL-1β 15 min
Method: Cultured FLS (passage 4) were plated at 2 × 10^5 cells in six-well plates overnight in DMEM containing 10% FBS and synchronized for 24 h in DMEM/0.1% FBS. […] The cells were then washed once with ice-cold PBS and lysed with modified radioimmunoprecipitation assay buffer [50 mM HEPES, pH 7.4, 150 mM NaCl, 1% Triton X-100, 10% glycerol, 2.5 mM MgCl2, 1.0 mM EDTA, 20 mM β-glycerophosphate, 10 mM NaF, 1 mM Na3VO4, and Protease inhibitor cocktail (Roche, Indianapolis, IN)]. Protein concentration of the lysates was measured using a MicroBCA Assay kit (Pierce, Rockford, IL), and 40 μg lysate was subjected to 10% SDS-PAGE and Western blot analysis. Anti–phospho-c-Jun (Ser63) was purchased from Cell Signaling Technology (Danvers, MA), and anti-mouse GAPDH was from Santa Cruz Biotechnology (Santa Cruz, CA).

MMP-3 secretion by FLS = test: IL-1β-induced MMP-3 secretion by FLS (ELISA); assay type: cell-based; conditions: Homo sapiens; 30 min compound, then 5 ng/ml IL-1β, 24 h
Excerpt: This study was approved by the Institutional Review Board of University of California, San Diego School of Medicine (La Jolla, CA, USA). Informed consent was obtained from all participants. Anonymous synovial tissue samples were obtained from six patients with RA at the time of total joint replacement (5 females, 1 male; age range, 44–72 years), as previously described ([Alvaro-Gracia et al., 1990]). The diagnosis of RA conformed to American College of Rheumatology 1987 revised criteria ([Arnett et al., 1988]). The synovium was minced and incubated with collagenase type VIII (0.5 mg/ml) (Sigma-Aldrich) in serum-free RPMI-1640 (Life Technologies, Grand Island, NY, USA) for 2 h at 37°C, filtered, extensively washed, and cultured in DMEM (Life Technologies) supplemented with 10% FBS (Gemini Bio Products, Calabasas, CA, USA), penicillin, streptomycin, gentamicin, and glutamine in a humidified 5% CO2 atmosphere. […]
FLS, HUVEC, SW982, and THP-1 cells were plated in 96 well plates (10^4 to 10^5 cells/well) for 48 h before treatment. […] The levels of MMP-1 and MMP-3 were determined in culture supernatants using commercially available ELISA kits according to the manufacturer’s instructions (R&D System, Minneapolis, MN, USA). IL-6 levels were also determined in the supernatants using a human IL-6 ELISA kit (BD Biosciences, San Jose, CA, USA).

MMP-1 secretion by HUVEC = test: IL-1β-induced MMP-1 secretion by HUVEC (ELISA); assay type: cell-based; conditions: Homo sapiens, 30 min compound, then 5 ng/ml IL-1β, 24 h
Method: as §1

T1 sequence (P22303 32-614): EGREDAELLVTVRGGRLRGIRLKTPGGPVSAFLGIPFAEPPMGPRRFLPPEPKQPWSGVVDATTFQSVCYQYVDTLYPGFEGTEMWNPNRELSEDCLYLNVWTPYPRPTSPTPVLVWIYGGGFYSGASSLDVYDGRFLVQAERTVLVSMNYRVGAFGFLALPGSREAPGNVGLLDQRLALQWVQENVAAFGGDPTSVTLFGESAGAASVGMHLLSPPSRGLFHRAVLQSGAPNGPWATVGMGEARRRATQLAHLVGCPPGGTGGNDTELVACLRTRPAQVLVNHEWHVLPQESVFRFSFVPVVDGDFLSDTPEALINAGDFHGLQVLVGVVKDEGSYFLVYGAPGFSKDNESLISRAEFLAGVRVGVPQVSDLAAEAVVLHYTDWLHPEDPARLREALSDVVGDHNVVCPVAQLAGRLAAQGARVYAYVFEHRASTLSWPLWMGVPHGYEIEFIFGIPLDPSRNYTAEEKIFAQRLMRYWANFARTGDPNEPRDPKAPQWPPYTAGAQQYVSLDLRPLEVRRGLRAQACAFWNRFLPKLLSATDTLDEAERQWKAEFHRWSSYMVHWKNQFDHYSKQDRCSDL

O=C1c2ccccc2-n2c1nc1ccccc1c2=O [TRYP, indolo[2,1-b]quinazolin-6,12-dione]
IL-10 production by LN cells (LN cells from CIA mice): higher
proinflammatory cytokines (IL-1β, IL-5, IL-6, IL-17A, TNF, GM-CSF, RANKL) by LN cells (LN cells from CIA mice): significantly reduced
binding affinity for JNK2 (JNK2): no binding affinity
IC50 [1]: 18.2 ± 2.3 µM
IC50 (IL-6 secretion by HUVEC): 6.4 ± 2.7 µM
AChE inhibition IC30 (AChE): 4.2 ± 1.2 µM
c-Jun phosphorylation [2]: had no effect
IC50 (MMP-3 secretion by FLS): 12.7 ± 4.6 µM
IC50 (MMP-1 secretion by HUVEC): 3.4 ± 1.1 µM

O=c1c2ccccc2nc2n1-c1ccccc1/C2=N/O [TRYP-Ox, tryptanthrin-6-oxime]
IL-10 production by LN cells (LN cells from CIA mice): higher
proinflammatory cytokines (IL-1β, IL-5, IL-6, IL-17A, TNF, GM-CSF, RANKL) by LN cells (LN cells from CIA mice): significantly reduced
IL-17A, GM-CSF and RANKL production by LN cells (LN cells from CIA mice; compared to mice treated with TRYP): significantly lower
binding affinity for JNK2 (JNK2): high binding affinity
IC50 [1]: > 50 µM
IC50 (IL-6 secretion by HUVEC): 0.9 ± 0.3 µM
AChE inhibition IC30 (AChE): 12.0 ± 3.9 µM
c-Jun phosphorylation [2]: inhibited c-Jun phosphorylation
IC50 (MMP-3 secretion by FLS): 3.8 ± 0.4 µM
IC50 (MMP-1 secretion by HUVEC): 2.9 ± 0.1 µM
